Holding throughout (experiment): Antibacterial activity assay (MIC, broth dilution)
Holding throughout (format): cell-based
(In general: Dilution methods test growth across graded concentrations, often in twofold steps.)

In one assay the test system is Staphylococcus aureus. The note with it: for MIC SA USA300: Staphylococcus aureus USA 300 strain, broth microdilution; for MIC: Staphylococcus aureus.
In the next assay the test system is Enterococcus faecalis. The following applies: for MIC EF 15951: Enterococcus faecalis 15951, broth microdilution; for MIC: Enterococcus faecalis.
For the next assay, the system named is Enterococcus faecium. The following applies: Enterococcus faecium. On the procedure:
(§1) Determination of the Minimal Inhibitory Concentrations (MIC) by dilution was carried out by broth dilution according to CLSI standards. See CLSI, Methods for Dilution Antimicrobial Susceptibility Tests for Bacteria That Grow Aerobically; Approved Standard—Eighth Edition. 2009, the contents of which are hereby incorporated by reference. Briefly, the minimum inhibitory concentration MIC, is the lowest concentration of a compound that prevents visible growth of a bacterium, in other words at which it has bacteriostatic activity.
For these tests, cation-adjusted Mueller Hinton broth, containing 10% brain-heart infusion (BHI) was used. Concentrations (MIC) are given in μg/mL. The compound was […].
(§2) Compounds were tested for MIC by methods known in the art and described in CLSI, Methods for Dilution Antimicrobial Susceptibility Tests for Bacteria That Grow Aerobically; Approved Standard—Tenth Edition. CLSI document M07-A10. Wayne, Pa.: Clinical and Laboratory Standards Institute, 2015, which is hereby incorporated by reference for these methods.
(§3) Selected compounds also were tested by broth microdilution methods known in the art and described in CLSI, Methods for Dilution Antimicrobial Susceptibility Tests for Bacteria That Grow Aerobically; Approved Standard—Tenth Edition. CLSI document M07-A10. Wayne, Pa.: Clinical and Laboratory Standards Institute, 2015, which is hereby incorporated by reference. Structures of selected compounds in the tables are listed below.

The next assay has as its system Acinetobacter baumannii. The following applies: Acinetobacter baumannii; Table 16; CLSI M07-A10 dilution method; read-out: MIC A. baumannii. On the procedure: as §1, §2, §3
Where [1] appears, read: cation-adjusted Mueller Hinton broth, 10% BHI, read-out: MIC E. faecalis 51299.
The mark [2] stands for this setting: cation-adjusted Mueller Hinton broth, 10% BHI, read-out: MIC E. faecalis 51575.
The mark [3] stands for this setting: cation-adjusted Mueller Hinton broth, 10% BHI, read-out: MIC E. faecalis C99707.
Setting [4] is: cation-adjusted Mueller Hinton broth, 10% BHI, read-out: MIC E. faecium C110914.
[5] abbreviates: cation-adjusted Mueller Hinton broth, 10% BHI, read-out: MIC E. faecium IH79985.
The mark [6] stands for this setting: cation-adjusted Mueller Hinton broth, 10% BHI, read-out: MIC E. faecium S1559.
Setting [7] is: Table 16, CLSI M07-A10 dilution method, read-out: MIC S. aureus.
Setting [8] is: Table 16, CLSI M07-A10 dilution method, read-out: MIC E. faecium.

Counter-ions that a name gives are not always drawn. Like-named read-outs stand apart in the source and are kept apart here. Bounds are passed on as bounds.

A word on the MIC: it is the least concentration at which growth counts as inhibited.

For `CN(C)c1ccc(/C=C/c2cc(-c3ccc(N(C)C)cc3)cc(-c3ccc(Br)cc3)[n+]2C)cc1.[I-]` [Compound 3jc01-3, (E)-2-(4-bromophenyl)-4-(4-(dimethylamino)phenyl)-6-(4-(dimethylamino)styryl)-1-methylpyridin-1-ium iodide salt], the MIC SA USA300 in the assay on Staphylococcus aureus is 1 µg/mL. In addition, the MIC EF 15951 with Enterococcus faecalis is 1 µg/mL.

As for `CN(C)c1ccc(-c2cc(/C=C/c3ccc(N(C)CCC#N)cc3)[n+](C)c(-c3ccc(Br)cc3)c2)cc1.[I-]` [Compound 3jc01-4, (E)-2-(4-bromophenyl)-6-(4-((2-cyanoethyl)(methyl)amino)styryl)-4-(4-(dimethylamino)phenyl)-1-methylpyridin-1-ium iodide salt], the MIC SA USA300 in the assay on Staphylococcus aureus stood at 32 µg/mL. In the assay on Enterococcus faecalis, this compound had an MIC EF 15951 of 32 µg/mL.

Take `CN(CCC#N)c1ccc(/C=C/c2cc(-c3ccc(N(C)CCC#N)cc3)cc(-c3ccc(F)cc3)[n+]2C)cc1.[I-]` [Compound 3jc01-6, (E)-4-(4-((2-cyanoethyl)(methyl)amino)phenyl)-2-(4-((2-cyanoethyl)(methyl)amino)styryl)-6-(4-fluorophenyl)-1-methylpyridin-1-ium iodide salt]: the MIC SA USA300 against Staphylococcus aureus stood at 1 µg/mL. The same compound had an MIC EF 15951 in the assay on Enterococcus faecalis of 8 µg/mL.

Compound `CN(C)c1ccc(/C=C/c2cc(-c3ccc(N(C)CCC#N)cc3)cc(-c3ccc(Br)cc3)[n+]2C)cc1.[I-]` [Compound 3jc01-7] displayed an MIC SA USA300 in the assay on Staphylococcus aureus of 1 µg/mL. The compound also returned an MIC EF 15951 with Enterococcus faecalis of 2 µg/mL.

In the assay with Staphylococcus aureus, `CN(CCC#N)c1ccc(/C=C/c2cc(-c3ccc(N(C)CCC#N)cc3)cc(-c3ccc(Br)cc3)[n+]2C)cc1.[I-]` [Compound 3jc01-8] gave an MIC SA USA300 of 1 µg/mL. Also, the MIC EF 15951 against Enterococcus faecalis was found to be 2 µg/mL.

With `Cc1ccc(-c2cc(/C=C/C=C3/N(C)c4ccccc4C3(C)C)[o+]c(-c3ccc(C)cc3)c2)cc1` [Compound 6jc67A, 2,4-di-p-tolyl-6-((1E,3E)-3-(1,3,3-trimethylindolin-2-ylidene)prop-1-en-1-yl)pyrylium boron tetrafluoride salt], the MIC with Enterococcus faecalis (setting [1]) is 1 µg/mL; in the assay on Enterococcus faecalis (setting [2]), 1 µg/mL; with Enterococcus faecalis (setting [3]) it was 1 µg/mL; with Enterococcus faecium (setting [4]), 1 µg/mL; with Enterococcus faecium (setting [5]), 2 µg/mL; with Enterococcus faecium (setting [6]) it was 1 µg/mL.

With `CCc1ccc(-c2cc(/C=C/c3cc4c5c(c3)CCCN5CCC4)[o+]c(-c3ccc(CC)cc3)c2)cc1` [Compound 6jc69-1, (E)-2,4-bis(4-ethylphenyl)-6-(2-(1,2,3,5,6,7-hexahydropyrido[3,2,1-ij]quinolin-9-yl)vinyl)pyrylium boron tetrafluoride salt], the MIC is 1 µg/mL with Enterococcus faecalis (setting [1]); 2 µg/mL with Enterococcus faecalis (setting [2]); 1 µg/mL with Enterococcus faecalis (setting [3]); 4 µg/mL in the assay on Enterococcus faecium (setting [4]); 8 µg/mL in the assay on Enterococcus faecium (setting [5]); 2 µg/mL in the assay with Enterococcus faecium (setting [6]).

Take `Cc1ccc(-c2cc(/C=C/c3cc4c5c(c3)CCCN5CCC4)[o+]c(-c3ccc(C)c(C)c3)c2)cc1C` [Compound 6jc69-3, (E)-2,4-bis(3,4-dimethylphenyl)-6-(2-(1,2,3,5,6,7-hexahydropyrido[3,2,1-ij]quinolin-9-yl)vinyl)pyrylium boron tetrafluoride salt]: the MIC in the assay on Enterococcus faecalis (setting [1]) turned out to be 1 µg/mL; with Enterococcus faecalis (setting [2]), 2 µg/mL; in the assay on Enterococcus faecalis (setting [3]), 1 µg/mL; with Enterococcus faecium (setting [4]) it was 2 µg/mL; in the assay with Enterococcus faecium (setting [5]) it was 4 µg/mL; in the assay with Enterococcus faecium (setting [6]) it was 2 µg/mL.

`CN(C)c1ccc(/C=C/c2cc(-c3ccc(Br)cc3)cc(-c3ccc(Br)cc3)[n+]2C)cc1.[I-]` [Compound 9, (E)-2,4-bis(4-bromophenyl)-6-(4-(dimethylamino)styryl)-1-methylpyridin-1-ium iodide]: the MIC came out at 1 µg/mL in the assay with Staphylococcus aureus (setting [7]), 8 µg/mL with Enterococcus faecium (setting [8]) and 8 µg/mL with Acinetobacter baumannii.

Turning to `Cc1ccc(-c2cc(/C=C/c3ccc(N(C)C)cc3)[n+](C)c(-c3ccc(Br)cc3)c2)cc1` [Compound 9a], the MIC in the assay on Staphylococcus aureus (setting [7]) worked out at 0.5 µg/mL; in the assay on Enterococcus faecium (setting [8]), 4 µg/mL; in the assay on Acinetobacter baumannii it was 4 µg/mL.

In the case of `CN(C)c1ccc(/C=C/c2cc(-c3cccc(Br)c3)cc(-c3ccc(Br)cc3)[n+]2C)cc1` [Compound 9b], the figures for the MIC in the assay on Staphylococcus aureus (setting [7]), with Enterococcus faecium (setting [8]) and in the assay on Acinetobacter baumannii were 1 µg/mL, 2 µg/mL and 16 µg/mL, respectively.

Turning to `CN(C)c1ccc(/C=C/c2cc(-c3ccc(Cl)cc3)cc(-c3ccc(Br)cc3)[n+]2C)cc1.[I-]` [Compound 9c, (E)-2-(4-bromophenyl)-4-(4-chlorophenyl)-6-(4-(dimethylamino)styryl)-1-methylpyridin-1-ium iodide], the MIC was 0.5 µg/mL in the assay with Staphylococcus aureus (setting [7]), 4 µg/mL with Enterococcus faecium (setting [8]) and 16 µg/mL in the assay with Acinetobacter baumannii.

Regarding `Cc1ccc(/C=C/c2cc(-c3ccc(Br)cc3)cc(-c3ccc(Br)cc3)[n+]2C)cc1.[I-]` [Compound 9d, (E)-2,4-bis(4-bromophenyl)-1-methyl-6-(4-methylstyryl)pyridin-1-ium iodide], the MIC is 1 µg/mL in the assay with Staphylococcus aureus (setting [7]), 4 µg/mL in the assay with Enterococcus faecium (setting [8]) and more than 64 µg/mL with Acinetobacter baumannii.

Take `CC[n+]1c(/C=C/c2ccc(N(C)C)cc2)cc(-c2ccc(Br)cc2)cc1-c1ccc(C)cc1.[I-]` [Compound 9e1, (E)-4-(4-bromophenyl)-2-(4-(dimethylamino)styryl)-1-ethyl-6-(p-tolyl)pyridin-1-ium iodide]: the MIC in the assay on Staphylococcus aureus (setting [7]) is 2 µg/mL; in the assay with Enterococcus faecium (setting [8]), 2 µg/mL; in the assay on Acinetobacter baumannii, 4 µg/mL.

In the case of `CC[n+]1c(/C=C/c2ccc(N(C)CCO)cc2)cc(-c2ccc(Br)cc2)cc1-c1ccc(C)cc1` [Compound 9e2], the MIC in the assay on Staphylococcus aureus (setting [7]) is 2 µg/mL; with Enterococcus faecium (setting [8]), 4 µg/mL; with Acinetobacter baumannii, 4 µg/mL.

Consider `CCC[n+]1c(/C=C/c2ccc(N(C)C)cc2)cc(-c2ccc(Br)cc2)cc1-c1ccc(C)cc1.[I-]` [Compound 9e3, (E)-4-(4-bromophenyl)-2-(4-(dimethylamino)styryl)-1-propyl-6-(p-tolyl)-pyridin-1-ium iodide], for which the MIC in the assay on Staphylococcus aureus (setting [7]) amounted to 0.5 µg/mL; in the assay with Enterococcus faecium (setting [8]) it was 2 µg/mL; with Acinetobacter baumannii it was 2 µg/mL.

Take `CCN(CC)c1ccc(/C=C/c2cc(-c3ccc(Br)cc3)cc(-c3ccc(Br)cc3)[n+]2C)cc1.[I-]` [Compound 9f, (E)-2,4-bis(4-bromophenyl)-6-(4-(diethylamino)styryl)-1-methylpyridin-1-ium iodide]: the MIC in the assay on Staphylococcus aureus (setting [7]) came out at 1 µg/mL; with Enterococcus faecium (setting [8]) it was 2 µg/mL; in the assay on Acinetobacter baumannii it was 32 µg/mL.

In the case of `CN(CCO)c1ccc(/C=C/c2cc(-c3ccc(Br)cc3)cc(-c3ccc(Br)cc3)[n+]2C)cc1.[I-]` [Compound 9g, (E)-2,4-bis(4-bromophenyl)-6-(4-((2-hydroxyethyl)(methyl)amino)styryl)-1-methylpyridin-1-ium iodide], the MIC was determined as 16 µg/mL in the assay on Staphylococcus aureus (setting [7]), 8 µg/mL with Enterococcus faecium (setting [8]) and 32 µg/mL in the assay on Acinetobacter baumannii.

`CCN(C)c1ccc(/C=C/c2cc(-c3ccc(Br)cc3)cc(-c3ccc(Br)cc3)[n+]2C)cc1.[I-]` [Compound 9h, (E)-2,4-bis(4-bromophenyl)-6-(4-(ethyl(methyl)amino)styryl)-1-methylpyridin-1-ium iodide]: the MIC in the assay with Staphylococcus aureus (setting [7]) came out at 16 µg/mL; with Enterococcus faecium (setting [8]), 8 µg/mL; in the assay on Acinetobacter baumannii, 8 µg/mL.

`CCN(CC)c1ccc(/C=C/c2cc(-c3ccc(Br)cc3)cc(-c3ccc(Br)cc3)[n+]2C)cc1F.[I-]` [Compound 9j, (E)-2,4-bis(4-bromophenyl)-6-(4-(diethylamino)-3-fluorostyryl)-1-methyl-pyridin-1-ium iodide]: the MIC in the assay with Staphylococcus aureus (setting [7]) came out at 32 µg/mL; with Enterococcus faecium (setting [8]), 32 µg/mL; in the assay with Acinetobacter baumannii it was 64 µg/mL.

Consider `CN(CCC#N)c1ccc(/C=C/c2cc(-c3ccc(Br)cc3)cc(-c3ccc(Br)cc3)[n+]2C)cc1.[I-]` [Compound 9k, (E)-2,4-bis(4-bromophenyl)-6-(4-((2-cyanoethyl)(methyl)amino)styryl)-1-methylpyridin-1-ium iodide], for which the values for the MIC in the assay on Staphylococcus aureus (setting [7]), with Enterococcus faecium (setting [8]) and in the assay on Acinetobacter baumannii were 32 µg/mL, 32 µg/mL and 64 µg/mL, respectively.

On to `CN(CCC#N)c1ccc(/C=C/c2cc(-c3ccc(F)cc3)cc(-c3ccc(F)cc3)[o+]2)cc1.F[B-](F)(F)F` [drawing 385], for which the MIC in the assay on Staphylococcus aureus (Table 21, read-out: Staphylococcus aureus MIC) is more than 64 µg/mL; in the assay with Enterococcus faecalis (Table 21, read-out: Escherichia feacalis MIC), more than 64 µg/mL.

As for “(E)-4-(4-((2-cyanoethyl)(methyl)amino)phenyl)-2-(4-(dimethylamino)styryl)-6-(4-fluorophenyl)-1-methylpyridin-1-ium iodide salt [Compound 3jc01-5]”, in the assay on Staphylococcus aureus, the MIC SA USA300 was determined as 1 µg/mL. This compound gave an MIC EF 15951 in the assay with Enterococcus faecalis of 4 µg/mL.
